Results: patent US8557959B2, “Allele and isotope-specific intervention on MHC class II molecules associated with autoimmune diseases by means of peptides” (Merck Serono S.A., priority 2007, dated 2013)
Where two headings read alike, the source gives them in different places.

Key:
HLA-DR2b molecules = target: T1, HLA-DR2b molecules (Homo sapiens, UniProt P01903+P01911); experiment: competitive ELISA (dissociation-enhanced lanthanide fluoroimmunoassay) with biotinylated CLIP 97-120 as tracer on purified DR2b molecules; format: binding
T1 construct: made in house; host or cells: L cells co-transfected with HLA-DRA and HLA-DRB1*1501
Text: DR2b molecules were purified from L cells that had been co-transfected with HLA-DRA and HLA-DRB1*1501, by affinity chromatography using the HLA-DR-specific L243 antibody, as described in Weissert et al. (2001), MHC class II-regulated central nervous system autoaggression and T cell responses in peripheral lymphoid tissues are dissociated in myelin oligodendrocyte glycoprotein-induced experimental autoimmune encephalomyelitits, J. Immunol. 166, 7588-7599. The above publication is incorporated into the present application by reference. The binding assays were performed with a competitive ELISA based on a dissociation-enhanced lanthanide fluoroimmunoassay (Wallac, Turku, Finland). For the competitive ELISA, a 50 nM solution of DR2b molecules was incubated for 48 hours at 37° C. with 50 nM biotinylated CLIP 97-120 in the presence of 250 nM acetylated nonapeptide amide sublibrary or with various concentrations of competitor peptides ranging from 1 nM to 100 μM. The IC50 of a peptide was defined as the concentration of peptide that was required for a 50% inhibition of the binding of the tracer peptide. […]

[1] = system: 08073 T cell hybridoma co-incubated with HLA-DR2b-transfected L466 cells; experiment: blocking of MBP 85-99 induced IL-2 secretion by high-affinity ligands for DR2b; format: cell-based, mouse; settings: 1 μg/ml MBP 85-99, 10 μg/ml peptide, 24 hours; FIG. 1
Experimental: L466 cells and 08073 cells, which were transfected with HLA-DR2b, were co-incubated in the presence of 1 μg/ml MBP 85-99 and 10 μg/ml of various HLA-DR2b peptides; “kein Komp.”=no peptide according to the invention in the batch. After 24 hours the supernatant was collected and the amount of IL-2 present in the supernatant was measured in a mouse-specific IL-2-ELISA.
L466 cells and 08073 cells that were transfected with HLA-DR2b were co-incubated in the presence of 1 μg/ml MBP 85-99 and 10 μg/ml of the HuPb28-variants. After 24 hours the supernatant was collected and the amount of IL-2 present in the supernatant was measured using a mouse-specific IL-2-ELISA.
A T cell hybridoma (08073), which expresses the T cell receptor that is specific for MBP 85-99, which is presented by HLA-DR2b, was provided. After stimulation with MBP 85-99, presented by HLA-DR2b-transfected L466 cells, the 08073 cells secreted significant amounts of IL-2. 5×10^4 08073 cells were co-incubated for 24 hours with 5×10^4 HLA-DR2b-transfected L466 cells in RPMI medium (Invitrogen, Pailey, United Kingdom)/2% FCS (PAA, Linz, Austria)/100 U/ml penicillin, 100 μg/ml streptomycin, 2 mM glutamine (all from Invitrogen) in the presence of 1 μg/ml […] with or without high-affinity peptides (10 μg/ml). The amounts of IL-2 that were secreted in the supernatant were detected using a mouse-IL-2-specific ELISA (BD Biosciences Pharmingen, San Diego, Calif., United States of America).

HLA-DR2b-transgenic mice = experiment: MOG 35-55-induced EAE, co-immunization experiment; format: in vivo, mouse
Experimental: DR2b mice were immunized with the MOG 35-55 peptide in CFA (n=8) or co-immunized with MOG 35-55 and the HuPb11 peptide (SEQ ID No. 17) (n=8) or MOG 35-55 and HuPb28 peptide (SEQ ID No. 9) (n=9). Pertussis toxin (PTX) was administered i.p. on days 0 and 2. The mice were measured daily for EAE and weighed.
The following classifications were used: 0, no disease; 1, weakness or paralysis of the tail; 2, weakness of the hind legs; 3, paralysis of the hind legs; 4, paralysis of the front and hind legs; 5, moribund or death caused by disease.

[2] = acetylated nonapeptide amides, 48 hours at 37° C., 50 nM DR2b, 50 nM biotinylated CLIP 97-120, read-out: IC50 for binding to HLA-DR2b molecules

| Substance | IC50 (HLA-DR2b molecules; [2]) | IL-2 secretion after stimulation of 08073 cells with MBP 85-99 [1] | also measured |
| --- | --- | --- | --- |
| Ac-GPPERLEFR-NH2 [HuPb19, GPPERLEFR] | > 100000 nM | did not show any effect |  |
| Ac-MIYWYNSWL-NH2 [HuPb31, MIYWYNSWL] | < 1 nM | significantly reduce IL-2 secretion |  |
| Ac-LILYYYYYL-NH2 [HuPb23, LILYYYYYL] |  |  | affinity for HLA-DR2b in words (HLA-DR2b molecules): moderate affinity |
| Ac-PYEAQELHE-NH2 [HuPb14, PYEAQELHE] | > 100000 nM |  |  |
| Ac-MIYWYSSWD-NH2 [HuPb33, MIYWYSSWD] | 1 nM |  |  |
| Ac-KGESGFRDR-NH2 [HuPb17, KGESGFRDR] |  | did not show any effect | IC50 (HLA-DR2b molecules): > 100000 nM |
| Ac-LILWYSSWP-NH2 [HuPb26, LILWYSSWP] | 1 nM |  |  |
| Ac-LILWYSSWL-NH2 [HuPb24, LILWYSSWL] | 2 nM |  |  |
| Ac-MLIYYSSYL-NH2 [HuPb28, MLIYYSSYL] | < 1 nM | significantly reduce IL-2 secretion | clinical EAE symptoms (HLA-DR2b-transgenic mice; co-administration of 200 μg peptide with 300 μg MOG 35-55 in CFA at immunization): reduced the clinical EAE symptoms; EAE sum value (HLA-DR2b-transgenic mice; co-immunized with MOG 35-55 and peptide, n=9, p<0.05, FIG. 3): reduction in the sum value |

Further lines, with some results ahead:

| IC50 (HLA-DR2b molecules; [2]) | Substance | IL-2 secretion after stimulation of 08073 cells with MBP 85-99 [1] | also measured |
| --- | --- | --- | --- |
| 1 nM | Ac-MIYWYSSWI-NH2 [HuPb21, MIYWYSSWI] |  |  |
| 2 nM | Ac-LIYWYSSWL-NH2 [HuPb22, LIYWYSSWL] |  |  |
| < 1 nM | Ac-MIYWYSNWL-NH2 [HuPb30, MIYWYSNWL] | only a slight reduction in IL-2 secretion |  |
| < 1 nM | Ac-DIYWYSSWP-NH2 [HuPb32, DIYWYSSWP] | significantly reduce IL-2 secretion |  |
| 1 nM | Ac-MIYWYSSWL-NH2 [HuPb20, MIYWYSSWL] |  |  |
| 1 nM | Ac-MIDWYSSWP-NH2 [HuPb34, MIDWYSSWP] |  |  |
| < 1 nM | Ac-LLYWYSSWP-NH2 [HuPb27, LLYWYSSWP] | only a slight reduction in IL-2 secretion |  |
| > 100000 nM | Ac-WGLPEHLER-NH2 [HuPb11, WGLPEHLER] |  |  |
| 2 nM | Ac-FILIYSNLF-NH2 [HuPb29, FILIYSNLF] |  |  |
